Reference: patent publication US12565489B2, “Heterocyclyl pyrimidines and triazines as novel fungicides” (Bayer Aktiengesellschaft, priority 2020, dated 2026)

Tests used:
[1] = system: Pyrenophora teres; experiment: Pyrenophora teres in vitro cell test; format: cell-based; settings: 144 h, 20 ppm of active ingredient, 6 days incubation, liquid culture, spectrometric measurement of mycelium growth, read-out: efficacy (inhibition of fungal growth)
Description: (§1) • Solvent: DMSO • Culture medium: 14.6 g anhydrous D-glucose (VWR), 7.1 g Mycological Peptone (Oxoid), 1.4 g granulated Yeast Extract (Merck), QSP 1 liter • Inoculum: spore suspension Fungicides were solubilized in DMSO and the solution used to prepare the required range of concentrations. […] A spore suspension of P. teres was prepared and diluted to the desired spore density. Fungicides were evaluated for their ability to inhibit spore germination and mycelium growth in liquid culture assay. The compounds were added in the desired concentration to the culture medium with spores. After 6 days incubation, fungi-toxicity of compounds was determined by spectrometric measurement of mycelium growth. Inhibition of fungal growth was determined by comparing the absorbance values in wells containing the fungicides with the absorbance in control wells without fungicides.

[2] = system: Sphaerotheca fuliginea; experiment: In vivo preventive test on Sphaerotheca fuliginea (powdery mildew on cucurbits); settings: Podosphaera fuliginea, 192 h; 500 ppm of active ingredient; preventive spray on young gherkin plants; evaluated 8 days after inoculation; read-out: efficacy
Description: (§2) The active ingredients were made soluble and homogenized in a mixture of Dimethyl sulfoxide/Acetone//Tween®80 and then diluted in water to the desired concentration. The young plants of gherkin were treated by spraying the active ingredient prepared as described above. Control plants were treated only with an aqueous solution of Acetone/Dimethyl sulfoxide/Tween® 80. After 24 hours, the plants were contaminated by spraying the leaves with an aqueous suspension of Sphaerotheca fuliginea spores.

[3] = system: Septoria tritici; experiment: Septoria tritici in vitro cell test; format: cell-based; settings: Zymoseptoria tritici, 168 h; 20 ppm of active ingredient; 7 days incubation; liquid culture, spectrometric measurement of mycelium growth; read-out: efficacy (inhibition of fungal growth)
Description: • Solvent: DMSO • Culture medium: 1 g KH2PO4 (VWR), 1 g K2HPO4 (VWR), 0.5 g Urea (VWR), 3 g KNO3 (Prolabo), 10 g saccharose (VWR), 0.5 g MgSO4, 7H2O (Sigma), 0.07 g CaCl2, 2H2O (Prolabo), 0.2 mg MnSO4, H2O (Sigma), 0.6 mg CuSO4, 5H2O (Sigma), 7.9 mg ZnSO4, 7H2O (Sigma), 0.1 mg H3BO3 (Merck), 0.14 mg NaMoO4, 2H2O (Sigma), 2 mg thiamine (Sigma), 0.1 mg biotine (VWR), 4 mg FeSO4, 7H2O (Sigma), QSP 1 liter • Inoculum: spore suspension Fungicides were solubilized in DMSO and the solution used to prepare the required range of concentrations. […] A spore suspension of S. tritici was prepared and diluted to the desired spore density. Fungicides were evaluated for their ability to inhibit spore germination and mycelium growth in liquid culture assay. The compounds were added in the desired concentration to the culture medium with spores. […] Inhibition of fungal growth was determined by comparing the absorbance values in wells containing the fungicides with the absorbance in control wells without fungicides.

[4] = system: Colletotrichum lindemuthianum; experiment: In vivo preventive test on Colletotrichum lindemuthianum (leaf spot on bean); settings: 168 h, 500 ppm of active ingredient, preventive spray on young bean plants, evaluated 7 days after inoculation, read-out: efficacy
Description: as §2, with “bean” for “gherkin”, “Colletotrichum lindemuthianum” for “Sphaerotheca fuliginea”

[5] = system: Botrytis cinerea; experiment: In vivo preventive test on Botrytis cinerea (grey mould); settings: 500 ppm of active ingredient, preventive spray on young gherkin or cabbage plants, evaluated 4 to 5 days after inoculation, read-out: efficacy
Description: as §2, with “gherkin or cabbage” for “gherkin”, “Botrytis cinerea” for “Sphaerotheca fuliginea”

[6] = system: Colletotrichum lindemuthianum; experiment: Colletotrichum lindemuthianum in vitro cell test; format: cell-based; settings: 144 h, 20 ppm of active ingredient, 6 days incubation, liquid culture, spectrometric measurement of mycelium growth, read-out: efficacy (inhibition of fungal growth)
Description: as §1, with “of C. lindemuthianum” for “of P. teres”, “inhibit spores” for “inhibit spore”

[7] = system: Alternaria brassicae; experiment: In vivo preventive test on Alternaria brassicae (leaf spot on radish or cabbage); settings: 144 h, 500 ppm of active ingredient, preventive spray on young radish or cabbage plants, evaluated 6 days after inoculation, read-out: efficacy
Description: as §2, with “radish or cabbage” for “gherkin”, “Alternaria brassicae” for “Sphaerotheca fuliginea”

[8] = system: Alternaria alternata; experiment: Alternaria alternata in vitro cell test; format: cell-based; settings: 120 h, 20 ppm of active ingredient, 5 days incubation, liquid culture, spectrometric measurement of mycelium growth, read-out: efficacy (inhibition of fungal growth)
Description: as §1, with “of A. alternata” for “of P. teres”, “After 5” for “After 6”

[9] = system: Pyricularia oryzae; experiment: microbe, parasite or virus in culture; format: cell-based; settings: 120 h, read-out: efficacy (inhibition of fungal growth)

Compound | inhibition at 20 ppm [1] [%] | pest or weed control at 500 ppm [2] [%] | inhibition at 20 ppm [3] [%] | pest or weed control at 500 ppm [4] [%] | pest or weed control at 500 ppm [5] [%] | inhibition at 20 ppm [6] [%] | pest or weed control at 500 ppm [7] [%] | inhibition at 20 ppm [8] [%] | inhibition at 20 ppm [9] [%]
C#Cc1cccc(Oc2cnc(C)nc2C2=NOC[C@@H](Cc3ccc(C)cc3C)N2)c1 (racemic) [Compound I-025] | 90 to 100 | 90 to 100 | 90 to 100 | 90 to 100 | 90 to 100 | 90 to 100 | 90 to 100 | 90 to 100 | 90 to 100
Cc1ncc(Oc2cccc(C(F)(F)F)c2)c(C2=NOCC(Cc3ccc(C4CC4)cc3C)N2)n1 (racemic) [Compound I-029, (5RS)-5-[(4-cyclopropyl-2-methyl-phenyl)methyl]-3-[2-methyl-5-[3-(trifluoromethyl)phenoxy]pyrimidin-4-yl]-5,6-dihydro-4H-1,2,4-oxadiazine] | 90 to 100 | 90 to 100 | 90 to 100 | 90 to 100 | 90 to 100 | 90 to 100 | 90 to 100 | 90 to 100 | 90 to 100
Cc1ccc(C[C@@H]2CON=C(c3nc(C)ncc3Oc3cccc(C4CC4)c3)N2)c(C)c1 (racemic) [Compound I-024] | 90 to 100 | 90 to 100 | 90 to 100 | 90 to 100 | 90 to 100 | 90 to 100 | 90 to 100 | 90 to 100 | 90 to 100
Cc1ccc(C[C@@H]2CON=C(c3nc(C)ncc3Oc3cccc(Cl)c3)N2)c(Cl)c1 (racemic) [Compound I-018] | 90 to 100 | 90 to 100 | 90 to 100 | 90 to 100 | 90 to 100 | 90 to 100 | 90 to 100 | 90 to 100 | 90 to 100
CSc1ncc(Oc2cccc(C(F)(F)F)c2)c(C2=NOC[C@@H](Cc3ccc(C)cc3C)N2)n1 (racemic) [Compound I-017] | 90 to 100 | 90 to 100 | 70 to 79 | 80 to 89 | 90 to 100 | 90 to 100 | 90 to 100 | 70 to 79 | 
C=Cc1cccc(Oc2cnc(C)nc2C2=NOC[C@@H](Cc3ccc(C)cc3C)N2)c1 (racemic) [Compound I-019] | 90 to 100 | 80 to 89 | 90 to 100 | 90 to 100 | 90 to 100 | 90 to 100 | 90 to 100 | 90 to 100 | 90 to 100
Cc1cccc(Oc2cnc(C)nc2C2=NOC[C@@H](Cc3ccc(C)cc3C)N2)c1 (racemic) [Compound I-004] | 90 to 100 | 90 to 100 | 90 to 100 | 90 to 100 | 90 to 100 | 90 to 100 | 90 to 100 | 90 to 100 | 90 to 100
Cc1ncc(Oc2cccc(C(F)(F)F)c2)c(C2=NOC[C@@H](Cc3ccc(SC(F)(F)F)cc3)N2)n1 (racemic) [Compound I-030] | 90 to 100 | 90 to 100 | 70 to 79 | 70 to 79 | 90 to 100 | 90 to 100 | 80 to 89 | 80 to 89 | 
Cc1ccc(C[C@@H]2CON=C(c3nc(C)ncc3Oc3cccc(C4CC4)c3F)N2)c(Cl)c1 (racemic) [Compound I-008] | 90 to 100 | 90 to 100 | 90 to 100 | 90 to 100 | 90 to 100 | 90 to 100 | 90 to 100 | 90 to 100 | 90 to 100
Cc1ccc(C[C@@H]2CON=C(c3nc(C)ncc3Oc3cccc(Br)c3)N2)c(C)c1 (racemic) [Compound I-009] | 90 to 100 | 90 to 100 | 90 to 100 | 90 to 100 | 90 to 100 | 90 to 100 | 90 to 100 | 90 to 100 | 90 to 100
Cc1ccc(C[C@@H]2CON=C(c3nc(C)ncc3Oc3cccc(C(F)(F)F)c3)N2)c(Cl)c1 (racemic) [Compound I-013] | 90 to 100 | 90 to 100 | 90 to 100 | 90 to 100 | 90 to 100 | 90 to 100 | 90 to 100 | 90 to 100 | 
Cc1ccc(C[C@@H]2CON=C(c3nc(C)ncc3Oc3cccc(Cl)c3)N2)c(C)c1 (racemic) [Compound I-023] | 90 to 100 | 90 to 100 | 80 to 89 | 90 to 100 | 90 to 100 | 90 to 100 | 90 to 100 | 90 to 100 | 90 to 100
COc1cccc(Oc2cnc(C)nc2C2=NOC[C@@H](Cc3ccc(C)cc3C)N2)c1 (racemic) [Compound I-032] | 90 to 100 | 90 to 100 | 90 to 100 | 90 to 100 | 90 to 100 | 90 to 100 | 90 to 100 | 90 to 100 | 80 to 89
